Measured values as given in patent US10329309B2, “3-(3H-imidazo[4,5-B]pyridin-2-yl)-1H-pyrazolo[4,3-B]pyridines and therapeutic uses thereof” (Samumed, LLC, priority 2015, dated 2019).

Test system: primary human mesenchymal stem cells (hMSCs)
Test: Induction of chondrogenesis in primary human mesenchymal stem cells (nodule imaging, Rhodamine B/Nile Red)
Type: cell-based
Conditions: hMSC chondrogenesis; for Emax: TGF-β3 as positive control, read-out: Max. Activity as % TGF-β3 activity; for EC50: concentration required to induce 50% levels of chondrogenesis vs TGF-β3, read-out: Conc (nM) of 50% TGF-β3 activity
Procedure: Representative compounds were screened using primary human mesenchymal stem cells (hMSCs) to determine their ability to induce chondrogenesis (process by which cartilage is developed).
Primary human mesenchymal stem cells (hMSCs) were purchased from Lonza (Walkersville, Md.) and expanded in Mesenchymal Stem Cell Growth Media (Lonza). Cells between passage 3 and 6 were used for the experiments.
Each compound was dissolved in DMSO as a 10 mM stock and used to prepare compound source plates. For the 96 well assay, serial dilution (1:3, 6-point dose-response curves from 2700 nM to 10 nM) and compound transfer was performed using the ECHO 550 (Labcyte, Sunnyvale, Calif.) into 96-well clear bottom assay plates (Greiner Bio-One) with appropriate DMSO backfill for a final DMSO concentration of 0.03%. hMSCs were plated at 20,000 cells/well in 250 μL/well Incomplete Chondrogenic Induction Medium (Lonza; DMEM, dexamethasone, ascorbate, insulin-transferrin-selenium [ITS supplement], gentamycin-amphotericin [GA-1000], sodium pyruvate, proline and L-glutamine). TGF-−3 (10 ng/mL) was used as a positive control for differentiation while negative control wells were treated with 75 nL DMSO for normalization and calculating EC50 values. For the 384 well assay, serial dilution (1:3, 8-point dose-response curves from 5000 nM to 2.2 nM) and compound transfer was performed using the ECHO 550 (Labcyte, Sunnyvale, Calif.) into 384-well clear bottom assay plates (Greiner Bio-One) with appropriate DMSO backfill for a final DMSO concentration of 0.03%. hMSCs were plated at 8,000 cells/well in 80 μL/well Incomplete Chondrogenic Induction Medium (Lonza; DMEM, dexamethasone, ascorbate, insulin-transferrin-selenium [ITS supplement], gentamycin-amphotericin [GA-1000], sodium pyruvate, proline and L-glutamine). TGF-β3 (10 ng/mL) was used as a positive control for differentiation while negative control wells were treated with 25 nL DMSO for normalization and calculating EC50 values. Cells were incubated at 37° C. and 5% CO2 for 6 days. To image chondrogenic nodules, the cells were fixed using 4% formaldehyde (Electron Microscopy Sciences), and stained with 2 μg/mL Rhodamine B (Sigma-Aldrich) and 20 μM Nile Red (Sigma-Aldrich) [Johnson K., et. al, A Stem Cell-Based Approach to Cartilage Repair, Science, (2012), 336(6082), 717-721]. The nodules imaged (25 images per well for 96 well plates and 9 images per well for 384 well plates at 10× magnification) by excitation at 531 nm and emission at 625 nm and quantified using the CellInsight CX5 (Thermo Scientific). Area of nodules in each well was normalized to the average of 3 DMSO treated wells on the same plate using Excel (Microsoft Inc.). The normalized averages (fold change over DMSO) of 2 or 3 replicate wells for each compound concentration were calculated. Due to solubility limitations of some of the compounds, curve fitting was incomplete leading to inaccurate EC50 determinations.
Using TGF-β3 as a positive control, the concentration of representative compounds required to induce 50% levels of chondrogenesis is reported. In addition, the maximum activity of each compound and the respective dose that each compound reached maximum chondrogenesis activity is reported.

**Q.** `CCC(=O)Nc1cncc(-c2ccc3[nH]nc(-c4nc5c(-c6cccc(F)c6)ccnc5[nH]4)c3n2)c1` [Compound 1, N-(5-(3-(7-(3-fluorophenyl)-3H-imidazo[4,5-b]pyridin-2-yl)-1H-pyrazolo [4,3-b]pyridin-5-yl)pyridin-3-yl)propionamide] was tested. Which Emax did it give?
**A.** Its Emax is 29%.

**Q.** For `Fc1cccc(-c2ccnc3[nH]c(-c4n[nH]c5ccc(-c6ccncc6)nc45)nc23)c1` [Compound 18, 3-(7-(3-fluorophenyl)-3H-imidazo[4,5-b]pyridin-2-yl)-5-(pyridin-4-yl)-1H-pyrazolo[4,3-b]pyridine], which Emax is on record?
**A.** Its Emax is 42%.

**Q.** For `Fc1cccc(-c2ccnc3[nH]c(-c4n[nH]c5ccc(-c6cncc(CN7CCC(F)(F)C7)c6)nc45)nc23)c1` [Compound 26, 5-(5-((3,3-Difluoropyrrolidin-1-yl)methyl)pyridin-3-yl)-3-(7-(3-fluorophenyl)-3H-imidazo[4,5-b]pyridin-2-yl)-1H-pyrazolo[4,3-b]pyridine], which Emax is on record?
**A.** The Emax was 247%.

**Q.** And the EC50?
**A.** Its EC50 is 900 nM.

**Q.** For `CC(C)(C)C(=O)Nc1cncc(-c2ccc3[nH]nc(-c4nc5c(-c6ccc(F)cc6)ccnc5[nH]4)c3n2)c1` [Compound 36, N-(5-(3-(7-(4-fluorophenyl)-3H-imidazo[4,5-b]pyridin-2-yl)-1H-pyrazolo [4,3-b]pyridin-5-yl)pyridin-3-yl)pivalamide], which Emax is on record?
**A.** Its Emax is 63%.

**Q.** What about the EC50 of the same compound?
**A.** Its EC50 is 10 nM.

**Q.** Which results are given for `Fc1ccc(-c2ccnc3[nH]c(-c4n[nH]c5ccc(-c6cncnc6)nc45)nc23)cc1` [Compound 55, 3-(7-(4-Fluorophenyl)-3H-imidazo[4,5-b]pyridin-2-yl)-5-(pyrimidin-5-yl)-1H-pyrazolo[4,3-b]pyridine]?
**A.** Emax: 99%; EC50: 30 nM

**Q.** How did the Emax turn out when `Nc1cncc(-c2ccc3[nH]nc(-c4nc5c(-c6ccccc6F)ccnc5[nH]4)c3n2)c1` [Compound 59, 5-(3-(7-(2-fluorophenyl)-3H-imidazo[4,5-b]pyridin-2-yl)-1H-pyrazolo[4,3-b]pyridin-5-yl)pyridin-3-amine] was run?
**A.** The Emax was 127%.

**Q.** What about the EC50 of the same compound?
**A.** The EC50 was 10 nM.

**Q.** Which Emax does the source give for `CC(C)C(=O)Nc1cncc(-c2ccc3[nH]nc(-c4nc5c(-c6ccccc6F)ccnc5[nH]4)c3n2)c1` [Compound 65, N-(5-(3-(7-(2-fluorophenyl)-3H-imidazo[4,5-b]pyridin-2-yl)-1H-pyrazolo [4,3-b]pyridin-5-yl)pyridin-3-yl)isobutyramide] here?
**A.** Its Emax is 197%.

**Q.** And the EC50?
**A.** The EC50 was 10 nM.

**Q.** How did the Emax turn out when `CC(C)C(=O)Nc1cncc(-c2ccc3[nH]nc(-c4nc5c(-c6cccnc6)ccnc5[nH]4)c3n2)c1` [Compound 93, N-(5-(3-(7-(pyridin-3-yl)-3H-imidazo[4,5-b]pyridin-2-yl)-1H-pyrazolo[4,3-b]pyridin-5-yl)pyridin-3-yl)isobutyramide] was run?
**A.** Its Emax is 26%.

**Q.** What does the source list for `Cc1ccncc1-c1ccc2[nH]nc(-c3nc4c(-c5ccncc5)ccnc4[nH]3)c2n1` [Compound 117, 5-(4-methylpyridin-3-yl)-3-(7-(pyridin-4-yl)-3H-imidazo[4,5-b]pyridin-2-yl)-1H-pyrazolo[4,3-b]pyridine]?
**A.** Emax: 147%; EC50: 100 nM

**Q.** With `O=C(Cc1ccccc1)Nc1cncc(-c2ccc3[nH]nc(-c4nc5c(-c6ccncc6)ccnc5[nH]4)c3n2)c1` [Compound 122, 2-phenyl-N-(5-(3-(7-(pyridin-4-yl)-3H-imidazo[4,5-b]pyridin-2-yl)-1H-pyrazolo[4,3-b]pyridin-5-yl)pyridin-3-yl)acetamide] as the compound, how does the Emax read?
**A.** The Emax was 63%.

**Q.** And the EC50?
**A.** The EC50 was 10 nM.

**Q.** How did the Emax turn out when `CCCC(=O)Nc1cncc(-c2ccc3[nH]nc(-c4nc5c(-c6ccncc6)ccnc5[nH]4)c3n2)c1` [Compound 129, N-(5-(3-(7-(pyridin-4-yl)-3H-imidazo[4,5-b]pyridin-2-yl)-1H-pyrazolo[4,3-b]pyridin-5-yl)pyridin-3-yl)butyramide] was run?
**A.** The Emax was 50%.

**Q.** For `O=C(Nc1cncc(-c2ccc3[nH]nc(-c4nc5c(-c6ccncc6)ccnc5[nH]4)c3n2)c1)C1CCCCC1` [Compound 135, N-(5-(3-(7-(pyridin-4-yl)-3H-imidazo[4,5-b]pyridin-2-yl)-1H-pyrazolo[4,3-b]pyridin-5-yl)pyridin-3-yl)cyclohexanecarboxamide], which Emax is on record?
**A.** The Emax was 69%.

**Q.** And the EC50?
**A.** Its EC50 is 10 nM.

**Q.** `CCNCc1cncc(-c2ccc3[nH]nc(-c4nc5c(-c6ccccn6)ccnc5[nH]4)c3n2)c1` [Compound 146, N-((5-(3-(7-(pyridin-2-yl)-3H-imidazo[4,5-b]pyridin-2-yl)-1H-pyrazolo[4,3-b]pyridin-5-yl)pyridin-3-yl)methyl)ethanamine] was tested. Which Emax did it give?
**A.** The Emax was 28%.

**Q.** Which Emax does the source give for `CCCCC(=O)Nc1cncc(-c2ccc3[nH]nc(-c4nc5c(-c6ccccn6)ccnc5[nH]4)c3n2)c1` [Compound 159, N-(5-(3-(7-(pyridin-2-yl)-3H-imidazo[4,5-b]pyridin-2-yl)-1H-pyrazolo[4,3-b]pyridin-5-yl)pyridin-3-yl)pentanamide] here?
**A.** Its Emax is 60%.

**Q.** And the EC50?
**A.** The EC50 was 100 nM.

**Q.** How did the Emax turn out when `CCC(=O)Nc1cncc(-c2ccc3[nH]nc(-c4nc5c(N6CCCCC6)ccnc5[nH]4)c3n2)c1` [Compound 169, N-(5-(3-(7-(piperidin-1-yl)-3H-imidazo[4,5-b]pyridin-2-yl)-1H-pyrazolo[4,3-b]pyridin-5-yl)pyridin-3-yl)propionamide] was run?
**A.** Its Emax is 38%.

**Q.** Which Emax does the source give for `CN(C)c1cncc(-c2ccc3[nH]nc(-c4nc5c(N6CCCCC6)ccnc5[nH]4)c3n2)c1` [Compound 175, N,N-dimethyl-5-(3-(7-(piperidin-1-yl)-3H-imidazo[4,5-b]pyridin-2-yl)-1H-pyrazolo [4,3-b]pyridin-5-yl)pyridin-3-amine] here?
**A.** The Emax was 42%.

**Q.** Which Emax does the source give for `CN(C)Cc1cncc(-c2ccc3[nH]nc(-c4nc5c(N6CCCCC6)ccnc5[nH]4)c3n2)c1` [Compound 181, N,N-dimethyl-1-(5-(3-(7-(piperidin-1-yl)-3H-imidazo[4,5-b]pyridin-2-yl)-1H-pyrazolo[4,3-b]pyridin-5-yl)pyridin-3-yl)methanamine] here?
**A.** Its Emax is 44%.

**Q.** For `Cc1cn(-c2ccnc3[nH]c(-c4n[nH]c5ccc(-c6cncc(NC(=O)CC(C)C)c6)nc45)nc23)cn1` [Compound 198, 3-methyl-N-(5-(3-(7-(4-methyl-1H-imidazol-1-yl)-3H-imidazo[4,5-b]pyridin-2-yl)-1H-pyrazolo[4,3-b]pyridin-5-yl)pyridin-3-yl)butanamide], which Emax is on record?
**A.** The Emax was 27%.

**Q.** `Cc1cn(-c2ccnc3[nH]c(-c4n[nH]c5ccc(-c6cncc(NC(=O)C(C)(C)C)c6)nc45)nc23)cn1` [Compound 204, N-(5-(3-(7-(4-methyl-1H-imidazol-1-yl)-3H-imidazo[4,5-b]pyridin-2-yl)-1H-pyrazolo[4,3-b]pyridin-5-yl)pyridin-3-yl)pivalamide] was tested. Which Emax did it give?
**A.** Its Emax is 70%.

**Q.** And the EC50?
**A.** The EC50 was 10 nM.

**Q.** `Cc1cn(-c2ccnc3[nH]c(-c4n[nH]c5ccc(-c6cncc(CN7CCCC7)c6)nc45)nc23)cn1` [Compound 210, 3-(7-(4-methyl-1H-imidazol-1-yl)-3H-imidazo[4,5-b]pyridin-2-yl)-5-(5-(pyrrolidin-1-ylmethyl)pyridin-3-yl)-1H-pyrazolo[4,3-b]pyridine] was tested. Which Emax did it give?
**A.** The Emax was 49%.

**Q.** Which Emax does the source give for `Cc1cn(-c2ccnc3[nH]c(-c4n[nH]c5ccc(-c6cncc(NC(=O)C7CCC7)c6)nc45)nc23)cn1` [Compound 217, N-(5-(3-(7-(4-methyl-1H-imidazol-1-yl)-3H-imidazo[4,5-b]pyridin-2-yl)-1H-pyrazolo[4,3-b]pyridin-5-yl)pyridin-3-yl)cyclobutanecarboxamide] here?
**A.** The Emax was 69%.

**Q.** And the EC50?
**A.** The EC50 was 300 nM.

**Q.** Which Emax does the source give for `CN1CCN(c2ccnc3[nH]c(-c4n[nH]c5ccc(-c6cncc(N)c6)nc45)nc23)CC1` [Compound 227, 5-(3-(7-(4-methylpiperazin-1-yl)-3H-imidazo[4,5-b]pyridin-2-yl)-1H-pyrazolo[4,3-b]pyridin-5-yl)pyridin-3-amine] here?
**A.** The Emax was 47%.

**Q.** Which Emax does the source give for `CC(C)C(=O)Nc1cncc(-c2ccc3[nH]nc(-c4nc5c(N6CCN(C)CC6)ccnc5[nH]4)c3n2)c1` [Compound 233, N-(5-(3-(7-(4-methylpiperazin-1-yl)-3H-imidazo[4,5-b]pyridin-2-yl)-1H-pyrazolo [4,3-b]pyridin-5-yl)pyridin-3-yl)isobutyramide] here?
**A.** The Emax was 62%.

**Q.** And the EC50?
**A.** The EC50 was 900 nM.

**Q.** How did the Emax turn out when `c1cncc(-c2ccc3[nH]nc(-c4nc5cccnc5[nH]4)c3n2)c1` [Compound 256, 3-(3H-imidazo[4,5-b]pyridin-2-yl)-5-(pyridin-3-yl)-1H-pyrazolo[4,3-b]pyridine] was run?
**A.** Its Emax is 74%.

**Q.** And the EC50?
**A.** Its EC50 is 10 nM.
